The results in this text go back to patent US20180252704A1, “SCREENING ASSAY TO IDENTIFY IDO1 AND/OR TDO MODULATORS” (Hoffmann-La Roche Inc., priority 2015, published 2018).

This assay addresses T1, human TDO (Homo sapiens, UniProt P48775).
T1 construct: expressed in transfected cells; pTet-On plus pTRE2hyg-TDO2
In words: cell based fluorescence assay of TDO activity in HepG2-Tet-on-TDO *25 cells (kynurenine detected with Sensor 1), compared with the prior art biochemical TDO assay. The conditions noted are these: IC50 cell-based assay versus biochemical assay. As for the experimental part: Assay Methods: Cells were seeded 10,000 cells/well in the Cell Plate and incubated at 37° C. and 5% CO2 in the 95% humidified cell culture incubator. Cells were then induced with 1 μg/ml of doxycyline for 24 h to achieve full expression of IDO or TDO. Non-induced cells were used as 100% inhibition control. After washing 3 times with 60 μl of 1× HBSS (37° C.), cells were equilibrated with 60 μl of 1× HBSS in the cell culture incubator for 30 min. After an-other 3 times washing with 60 μl of 1× HBSS (37° C.), cells were treated with compounds for 10 min before adding the substrate, L-tryptophan, to a final concentration of 80 μM. The assay was carried out for 4 h at 37° C. and 5% CO2 in the cell culture incubator. The reaction was then stopped by transfer of 30 μl/well of supernatant into the Assay Plate. 10 μl/well of 30% (w/v) TCA were added and followed by application of Sensor 1 to a final concentration of 10 μM. After brief centrifugation, the fluorescence was measured at Ex: 546, Em: 586nm with a Paradigm (Molecular devices) plate reader. [table]

T1 sequence (P48775 whole entry): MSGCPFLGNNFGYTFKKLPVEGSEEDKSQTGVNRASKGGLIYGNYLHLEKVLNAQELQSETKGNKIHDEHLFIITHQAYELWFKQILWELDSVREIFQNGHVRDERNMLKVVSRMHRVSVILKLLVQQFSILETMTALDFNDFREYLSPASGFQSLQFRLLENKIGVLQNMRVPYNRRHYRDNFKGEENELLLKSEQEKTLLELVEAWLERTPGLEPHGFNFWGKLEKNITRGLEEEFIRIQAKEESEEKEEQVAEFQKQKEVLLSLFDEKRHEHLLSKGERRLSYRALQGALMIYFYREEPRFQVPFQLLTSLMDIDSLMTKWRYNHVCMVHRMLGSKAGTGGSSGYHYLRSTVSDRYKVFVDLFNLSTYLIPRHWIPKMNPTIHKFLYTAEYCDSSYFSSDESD

On to `NS(=O)(=O)NCCNc1nonc1/C(=N/O)Nc1ccc(F)c(Br)c1` [INCB024360, (Z)-N-(3-bromo-4-fluorophenyl)-N′-hydroxy-4-(2-(sulfamoylamino)ethylamino)-1,2,5-oxadiazole-3-carboximidamide], for which the “right-shift of IC50 from biochemical assay to cell-based assay in TDO enzyme activity” value is recorded as “Over 100 fold”.
